Each structure is given as a SMILES string.

One test deals with T1, AR-LBD wt (Homo sapiens, UniProt P10275).
T1 sequence (P10275 669-900 limits assumed): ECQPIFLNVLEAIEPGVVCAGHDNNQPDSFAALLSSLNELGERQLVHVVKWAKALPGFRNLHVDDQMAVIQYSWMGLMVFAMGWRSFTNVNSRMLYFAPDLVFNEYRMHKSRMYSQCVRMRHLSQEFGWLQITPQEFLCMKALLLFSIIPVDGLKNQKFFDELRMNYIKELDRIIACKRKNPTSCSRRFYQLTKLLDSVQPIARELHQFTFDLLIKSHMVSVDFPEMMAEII
Briefly: Lanthascreen TR-FRET AR coactivator (D11-FxxLF) assay, AR-LBD wt. In kind it is biochemical. Particulars: TR-FRET in agonist and antagonist mode.
In the case of `C/C(=N\NC(=O)c1cc2ccccc2cc1O)C1C(=O)c2ccccc2C1=O` [MDG603], the “type of AR antagonism (full / partial)” value is “full AR antagonists”.

Still in this test, the particulars now being: TR-FRET, D11-FxxLF peptide, DHT = EC80; read-out: Activity (AR wt TR-FRET).
Turning to `CCOc1cc(/C=N/NC(=O)c2cc3ccccc3cc2O)ccc1O` [MDG481], the IC50 is more than 100 µM.
Same read-out and setting: then `O=C(N/N=C/c1cccnc1)c1cc2ccccc2cc1O` [MDG482], with more than 100 µM; and `COc1ccc(C(=O)NNC(=O)c2cc3ccccc3cc2O)cc1` [MDG484], with more than 100 µM.
On the same count and under the same terms, then `O=C(N/N=C/c1cccc(O)c1O)c1ccccc1` [MDG485], with more than 100 µM; and `O=C(N/N=C/c1cccc(O)c1O)c1ccccc1O` [MDG486], with more than 100 µM.
Still for that read-out and setting: with `O=C(N/N=C/c1ccc2ccccc2c1)c1ccccc1O` [MDG487] the figure was more than 100 µM; with `CCOc1ccc(/C=N/NC(=O)c2cc3ccccc3cc2O)cc1O` [MDG488], more than 100 µM.
Consider `COc1cc(/C=N/NC(=O)c2cc3ccccc3cc2O)cc(OC)c1O` [MDG489, 3-hydroxy-N′-(4-hydroxy-3,5-dimethoxybenzylidene)-2-naphthohydrazide], for which the IC50 is more than 100 µM.
The same measure, in the same setting: then `O=C(N/N=C/c1ccccc1C(=O)O)c1cc2ccccc2cc1O` [MDG490], with more than 100 µM; and `Cc1ccccc1/C=N/NC(=O)c1cc2ccccc2cc1O` [MDG492], with more than 100 µM; and `CCN(CC)c1ccc(/C=N/NC(=O)c2cc3ccccc3cc2O)cc1` [MDG493], with more than 100 µM.
Same read-out and setting: with `COc1ccc(/C=N/NC(=O)c2cc3ccccc3cc2O)cc1O` [MDG494] the figure was more than 100 µM.
In the case of `O=C(N/N=C/c1cccc(OCc2ccccc2)c1)c1cc2ccccc2cc1O` [MDG495], the IC50 is more than 100 µM.
Regarding `O=C(N/N=C/c1cccc(Cl)c1Cl)c1cc2ccccc2cc1O` [MDG496], the IC50 is more than 100 µM.
Still for that read-out and setting: with `Cc1cccc(/C=N/NC(=O)c2cc3ccccc3cc2O)c1` [MDG497] the figure was more than 100 µM; with `O=C(N/N=C/c1ccc(OCc2ccccc2)cc1)c1cc2c(ccc3ccccc32)o1` [MDG499], more than 100 µM.
The same measure, in the same setting: with `O=C(N/N=C/c1ccc(O)c(Br)c1)c1cc2c(ccc3ccccc32)o1` [MDG500] the figure was more than 100 µM.
Still for that read-out and setting: with `COc1cc(Br)cc(/C=N/NC(=O)c2cc3c(ccc4ccccc43)o2)c1O` [MDG501] the figure was more than 100 µM.
As for `CC(C)Oc1ccc(/C=N/NC(=O)c2cc3c(ccc4ccccc43)o2)cc1` [MDG502], the IC50 was more than 100 µM.
Take `COc1ccc(/C=N/NC(=O)c2cc3c(ccc4ccccc43)o2)c2ccccc12` [MDG503]: the IC50 was more than 100 µM.
For `COc1ccc(/C=N/NC(=O)c2cc3c(ccc4ccccc43)o2)cc1C` [MDG504], the IC50 was more than 100 µM.
For the molecule `COc1cccc(/C=N/NC(=O)c2cc3c(ccc4ccccc43)o2)c1` [MDG505, N′-(3-methoxybenzylidene)naphtho[2,1-b]furan-2-carbohydrazide], the IC50 was more than 100 µM.
On the same count and under the same terms, with `COc1ccc(/C=N/NC(=O)c2cc3c(ccc4ccccc43)o2)cc1O` [MDG507] the figure was more than 100 µM.
Same read-out and setting: with `CCCOc1ccc(/C=N/NC(=O)c2cc3c(ccc4ccccc43)o2)cc1OC` [MDG509] the figure was more than 100 µM; with `CCCOc1ccc(/C=N/NC(=O)c2cc3c(ccc4ccccc43)o2)cc1OCC` [MDG510], more than 100 µM; with `COc1cc(/C=N/NC(=O)c2cc3c(ccc4ccccc43)o2)cc(OC)c1OC` [MDG511], more than 100 µM.
For the molecule `CCOc1ccc(/C=N/NC(=O)c2cc3c(ccc4ccccc43)o2)cc1` [MDG512], the IC50 was more than 100 µM.
Same read-out and setting: with `COc1c(Cl)cc(/C=N/NC(=O)c2cc3c(ccc4ccccc43)o2)cc1Cl` [MDG513] the figure was more than 100 µM; with `CCOc1c(Cl)cc(/C=N/NC(=O)c2cc3c(ccc4ccccc43)o2)cc1Cl` [MDG514], more than 100 µM; with `COc1cc(/C=N/NC(=O)c2cc3c(ccc4ccccc43)o2)cc(Cl)c1OCc1ccccc1` [MDG515], more than 100 µM.
Same read-out and setting: with `COc1cc(/C=N/NC(=O)c2cc3c(ccc4ccccc43)o2)c(Br)cc1O` [MDG516] the figure was more than 100 µM; with `CCOc1cc(/C=N/NC(=O)c2cc3ccccc3o2)cc(I)c1OC` [MDG598], more than 100 µM; with `COc1ccccc1/C=N/NC(=O)c1ccc2ccccc2c1O` [MDG599], more than 100 µM.
On the same count and under the same terms, with `COc1cc2ccccc2cc1C(=O)N/N=C/c1ccccc1O` [MDG600] the figure was more than 100 µM; with `O=C(C/C=N/C=N/NC(=O)c1ccccc1O)c1ccccc1O` [MDG601], more than 100 µM.
On to `O=C(N/N=C/c1cc2ccccc2cc1O)c1ccc(C(=O)N/N=C/c2cc3ccccc3cc2O)cc1` [MDG602], for which the IC50 is more than 100 µM.
Same read-out and setting: then `C/C(=N\NC(=O)c1cc2ccccc2cc1O)C1C(=O)c2ccccc2C1=O` [MDG603], with 11.3 ± 2.6 µM; and `C/C(=N\NC(=O)c1cc2ccccc2cc1O)c1ccco1` [MDG604], with more than 100 µM.
Still for that read-out and setting: with `O=C(N/N=C/c1cccc2ccccc12)c1cc2ccccc2cc1O` [MDG607] the figure was more than 100 µM; with `Cc1ccc(O)c(/C=N/NC(=O)c2cc3ccccc3cc2O)c1` [MDG609], more than 100 µM.
Same read-out and setting: then `CC(C)(C)c1ccc(O)c(/C=N/NC(=O)c2cc3ccccc3cc2O)c1` [MDG610], with more than 100 µM.
Take `O=C(N/N=C/c1cc(I)ccc1O)c1cc2ccccc2cc1O` [MDG613]: the IC50 is more than 100 µM.
Still for that read-out and setting: with `COc1cc(Cl)cc(/C=N/NC(=O)c2cc3ccccc3cc2O)c1O` [MDG615] the figure was more than 100 µM; with `O=C(N/N=C/c1cccc(Cl)c1O)c1cc2ccccc2cc1O` [MDG618, 3-hydroxy-N′-(2-hydroxy-3-chlorobenzylidene)-2-naphthohydrazide], more than 200 µM.
On the same count and under the same terms, then `COc1ccccc1/C=N/NC(=O)c1cc2ccccc2cc1O` [MDG619], with more than 100 µM; and `COc1ccc(Br)cc1/C=N/NC(=O)c1cc2ccccc2cc1O` [MDG620], with more than 100 µM.
The same measure, in the same setting: then `C/C(=N\NC(=O)c1cc2ccccc2cc1O)c1cc(Cl)ccc1O` [MDG621, 3-hydroxy-N′-[(1E)-1-(2-hydroxy-5-chlorophenyl)ethylidene]-2-naphthohydrazide], with more than 100 µM.
With `O=C(N/N=C/c1cc(Cl)ccc1O)c1ccc2ccccc2c1` [MDG622], the IC50 was more than 100 µM.
On the same count and under the same terms, with `O=C(N/N=C/c1ccc(Cl)c([N+](=O)[O-])c1)c1cc2ccccc2cc1O` [MDG623] the figure was more than 100 µM; with `O=C(N/N=C/c1ccc2ccccc2c1O)c1cc2ccccc2cc1O` [MDG624], more than 100 µM; with `O=C(N/N=C/c1ccc2ccccc2c1)c1cc2ccccc2cc1O` [MDG625], more than 100 µM.
Same read-out and setting: then `C/C(=N\NC(=O)c1cc2ccccc2cc1O)c1ccc2ccccc2c1` [MDG626], with more than 100 µM.
In the case of `O=C(N/N=C(\c1ccccc1)c1ccc2ccccc2c1)c1cc2ccccc2cc1O` [MDG627], the IC50 is more than 100 µM.
Still for that read-out and setting: with `O=C(N/N=C/c1ccccc1)c1cc2ccccc2cc1O` [MDG628, 3-hydroxy-N′-benzylidene-2-naphthohydrazide] the figure was more than 100 µM; with `O=C(N/N=C/c1ccccc1[N+](=O)[O-])c1cc2ccccc2cc1O` [MDG631], more than 100 µM.
Same read-out and setting: then `Nc1ccccc1/C=N/NC(=O)c1cc2ccccc2cc1O` [MDG632], with more than 100 µM; and `O=C(N/N=C/c1cc(Cl)ccc1[N+](=O)[O-])c1cc2ccccc2cc1O` [MDG633], with more than 100 µM.
